Columns and labels:
ob/ob mice [1] = assay: Glucose tolerance test (GTT); assay type: in vivo, mouse; conditions: day 7 post-injection, compared with vehicle
Method: (§1) Both glucose (GTT) and insulin (ITT) tolerance tests were performed following a 10-hr fast and an additional 2-hr after CDNs injection with baseline blood glucose measurement taken before the beginning of the test. For the GTT, D-glucose dissolved in 0.9% NaCl was delivered intraperitoneally at a dose of 1 g/kg. The blood glucose level was measured 0, 15, 30, 60, 90, and 120 min after glucose administration. For the ITT, insulin was administered intraperitoneally at a dose of 1 IU/kg. The blood glucose level was measured 0, 15, 30, 60, 90, and 120 min after insulin administration. Glucose levels were measured in blood samples drawn from the tail vein using OneTouch Ultra 2 Meter (LifeScan, Inc.).

ob/ob mice [2] = assay: Insulin tolerance test (ITT); assay type: in vivo, mouse; conditions: day 10 post-injection, compared with vehicle
Method: as §1

PERK, elF2α, CHOP = assay: Liver protein markers of ER stress (western blot); assay type: in vivo, mouse; conditions: liver of ob/ob mice, 50 mg/kg
Method: Proteins were analyzed by western blot and quantified. Bands were normalized to GAPDH and expressed as 100% of ob/ob+vehicle (ob). Liver tissues were homogenized with a bench-top homogenizer in an ice-cold tissue lysis buffer. The homogenized samples were centrifuged at 8,000×g for 20 min at 4° C. The lipid layer was removed and the supernatant was transferred into Eppendorf tubes. After centrifuging at 16,000×g for 60 min at 4° C., the supernatants were normalized to the same concentration and boiled at 100° C. in 1× Laemmli buffer for 5 min. The lysate was cooled to room temperature before loading for Western blot analysis. Protein lysate was resolved on SDS polyacrylamide gel and transferred onto PVDF membrane at a voltage of 100 V for 2 hrs at 4° C. The membrane was blocked in 10% blocking reagent and incubated overnight with a primary antibody in Tris-buffered saline solution/Tween (TBST)/10% blocking reagent at 4° C. After incubation, the membrane was washed three times in TBST for 20 min and incubated at room temperature with a secondary antibody in TBST/10% blocking reagent for 1 hr. The membrane was washed three times for 20 min and developed using a chemiluminescence assay system. To strip a membrane for another primary antibody, the membrane was agitated at 50° C. for 20 min in a box with stripping buffer (2% SDS and 100 mM 2-mercaptoethanol in TBS, pH 7.5). […]

[3] = target: human nerepinephrine (NET) transporter (Homo sapiens, UniProt P23975); assay: Selectivity panel of 164 targets: NET; conditions: 10 μM in duplicate; one of only 4 hits among 164 targets
Description: The methods used here for each target were adapted from the scientific literature to maximize reliability and reproducibility.

APP-PS1 mice = assay: Alzheimer's disease model, Aβ deposition (Thioflavin S staining); assay type: in vivo, mouse; conditions: 10 mg/kg ip for 4 weeks, vs saline
Method: PS1/APP mice (PS1M146V and APPSWE) (Howlett et al., Brain Res. 2004, 1017, 130-136) were used. Age-matched NTg controls were on the same background strain (C57bl6/J9).
Mice were transcardially perfused with ice-cold PBS (3 mL) followed by 4% paraformaldehyde (5 mL). Brains were extracted and fixed overnight in 30% sucrose-cryoprotectant solution. Coronal hippocampal sections 40 μm thick were cut on a cryostat and collected in TBS (0.1 M Tris, 0.9% saline, pH 7.4).
Free-floating hippocampal sections were washed with TBS (4×3 min). The sections were soaked in 0.5% thioflavin S (in 50/50 ethyl alcohol/distilled water, Sigma-Aldrich) for 10 min, followed by 2×3 min washes with 50% ethyl alcohol. Sections were washed again with TBS (2×3 min), mounted with minimal drying, and coverslipped with anti-fade mounting medium PVA-DABCO for microscopy.
Confocal images of immunolabeled tissue were obtained using 4× and 10× objective lenses on the Olympus Fluoview confocal microscope. Density of amyloid plaques was quantified by averaging the percent area staining positive (thresholded above background staining, as determined by software parameters and experimenter confirmation) within the hippocampus and cortex from 3-5 sections from each experimental animal using MetaMorph Software (Molecular Devices). […]

[4] = tested on: 6-OHDA lesioned Wistar rats; assay: Rat unilateral 6-OHDA model of Parkinson's disease, stepping test; assay type: in vivo; conditions: D11, 10 mg/kg IP once daily for 15 days; 6-OHDA/Vehicle 1.19±0.24 steps
Method: Fifty adult male Wistar rats were used. The rats from different groups (G1 to G5) were randomized. At the beginning of the study, the rats were about 5 weeks old and naive to previous administration of any drug.
A stereotaxic injection of 6-OHDA (G2 to G5) or saline (G1: sham group) was performed to induce a unilateral dopaminergic lesion on day 0 (D0). Surgery was performed on D0 under ketamine (50 mg/kg) and xylazine (10 mg/kg). The rats of G2 to G5 received a unilateral injection of 6-OHDA (6 μL) in the left substantia nigra pars compacta. Jouve et al., J. Neurosci. 2010, 30, 9919-9928. The rats of the G1 sham group were injected with saline. During surgery, local analgesia was achieved using subcutaneous injections of lidocaine. At the end of surgery, the rats were treated with buprenorphine (0.05 mg/kg, S.C.).
The stepping test was performed after IT test, both before the 6-OHDA lesion induction on D0 and on D11. Around D−6, the stepping test was performed eight consecutive times for the right paw of each animal to obtain baseline values. On D11, the stepping test was performed one hour after the rats were dosed. Each rat was hold by an experimenter and only one of the two forelimbs was left free to move above a plane surface and the other was held with the paw touching the table. The rats were then to be moved slowly forward by the experimenter. The number of adjusting steps was countered for the right paw. Olsson et al., J. Neurosci. 1995, 15, 3863-3875.
L-DOPA and benserazide (a peripheric DOPA decarboxylase inhibitor) were prepared together as a single solution containing 0.9% NaCl and 0.1% ascorbic acid.
All the dosings were given via the IP route, once daily, Sunday excluded.

Chain of human nerepinephrine (NET) transporter (P23975 whole entry): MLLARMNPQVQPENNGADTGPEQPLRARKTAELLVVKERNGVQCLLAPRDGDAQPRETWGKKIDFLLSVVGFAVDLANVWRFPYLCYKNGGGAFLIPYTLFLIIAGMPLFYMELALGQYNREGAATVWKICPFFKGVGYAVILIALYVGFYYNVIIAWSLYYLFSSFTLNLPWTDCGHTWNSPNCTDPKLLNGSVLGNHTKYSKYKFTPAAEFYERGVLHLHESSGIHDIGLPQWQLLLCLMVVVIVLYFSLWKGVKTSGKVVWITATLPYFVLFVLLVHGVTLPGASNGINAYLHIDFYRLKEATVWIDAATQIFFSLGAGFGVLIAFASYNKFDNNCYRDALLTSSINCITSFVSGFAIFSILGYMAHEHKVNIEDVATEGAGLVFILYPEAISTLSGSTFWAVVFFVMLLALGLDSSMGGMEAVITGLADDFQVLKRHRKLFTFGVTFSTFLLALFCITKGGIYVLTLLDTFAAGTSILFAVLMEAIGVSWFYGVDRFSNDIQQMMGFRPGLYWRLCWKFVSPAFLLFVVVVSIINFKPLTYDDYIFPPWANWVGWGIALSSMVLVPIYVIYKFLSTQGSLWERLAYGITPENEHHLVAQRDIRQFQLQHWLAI

Cc1ccc2cccc(NC(=O)c3ccc(OC(C)C)cc3)c2n1 [Compound A12, 4-Isopropoxy-N-(2-methylquinolin-8-yl)benzamide]
hyperglycemic response to the i.p. glucose challenge (GTT) (ob/ob mice [1]): significantly reduced | insulin-stimulated glucose deposal (ITT) (ob/ob mice [2]): strongly enhanced | expression of CHOP (PERK, elF2α, CHOP): significantly reduced | phosphorylation of PERK and elF2α (PERK, elF2α, CHOP): significantly reduced | response against human nerepinephrine (NET) transporter [3]: significant responses | amyloid plaques stained with Thioflavin S (APP-PS1 mice): reduced | number of adjusting steps [4]: 6.94±0.86 steps

— patent US20170281611A1, “QUINOLINES AND THEIR USE FOR TREATING ENDOPLASMIC RETICULUM STRESS-CAUSED DISEASES” (EIGER BIOPHARMACEUTICALS, INC., priority 2014, published 2017)
